Results as given in the supplement of paper PMC8967900.

What was measured:
Assay in all cases: selective drug sensitivity score (sDSS, relative to normal bone marrow) (sDSS (score)); higher = more potent and effective on the cell line relative to normal bone marrow cells
Settings in all cases: 72 h
697 = tested on: 697
ALL-PO = tested on: ALL-PO
CCRF-HSB2 = tested on: CCRF-HSB2
COG-LL-319h = tested on: COG-LL-319h
COG-LL-402h = tested on: COG-LL-402h
DND-41 = tested on: DND-41
KARPAS-45 = tested on: KARPAS-45
KASUMI-10 = tested on: KASUMI-10
KOPN-8 = tested on: KOPN-8
MHH-CALL-2 = tested on: MHH-CALL-2
MOLT-4 = tested on: MOLT-4
NALL-1 = tested on: NALL-1
NALM-16 = tested on: NALM-16
NALM-6 = tested on: NALM-6
P12-ICHIKAWA = tested on: P12-ICHIKAWA
RCH-ACV = tested on: RCH-ACV
REH = tested on: REH
SEM cells = tested on: SEM cells
SUP-B15 = tested on: SUP-B15
TMD5 = tested on: TMD5
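Also: ALL cell lines in 384-well plates, five doses spanning 10,000-fold, each plate scaled between vehicle and 100 µmol/L benzalkonium chloride controls, sDSS an adapted area-under-curve metric.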

| Compound | selective drug sensitivity score 697 | selective drug sensitivity score (ALL-PO) | selective drug sensitivity score (CCRF-HSB2) | selective drug sensitivity score (COG-LL-319h) | selective drug sensitivity score (COG-LL-402h) | selective drug sensitivity score (DND-41) | selective drug sensitivity score (KARPAS-45) | selective drug sensitivity score (KASUMI-10) | selective drug sensitivity score (KOPN-8) | selective drug sensitivity score (MHH-CALL-2) | selective drug sensitivity score (MOLT-4) | selective drug sensitivity score (NALL-1) | selective drug sensitivity score (NALM-16) | selective drug sensitivity score (NALM-6) | selective drug sensitivity score (P12-ICHIKAWA) | selective drug sensitivity score (RCH-ACV) | selective drug sensitivity score (REH) | selective drug sensitivity score (SEM cells) | selective drug sensitivity score (SUP-B15) | selective drug sensitivity score (TMD5) |
| --- | --- | --- | --- | --- | --- | --- | --- | --- | --- | --- | --- | --- | --- | --- | --- | --- | --- | --- | --- | --- |
| CNC(=O)CN1CCC(Oc2cc3c(Nc4cccc(Cl)c4F)ncnc3cc2OC)CC1 [Sapitinib] (top concentration 1000 nM) | 0 | 0 | 3.3 | 0 | 0 | 0 | 0 | 0 | 0 | 0 | 0 | 0 | 0 | 0 | 0 | 0 | 0 | 0 | 0 | 0 |
| Nc1nc(F)nc2c1ncn2[C@@H]1O[C@H](CO)[C@@H](O)[C@@H]1O [Fludarabine] (top concentration 10000 nM) | 7.3 | 1.6 | 1.5 | 8.4 | 8 | 5.5 | -10.3 | -0.8 | 8.4 | 8 | -1.9 | 2.3 | -6 | 4.6 | -5.5 | 5.9 | -1.3 | 4 | 9.4 | -10.6 |
| COc1cc([C@@H]2c3cc4c(cc3[C@@H](O[C@@H]3O[C@@H]5CO[C@@H](c6cccs6)O[C@H]5[C@H](O)[C@H]3O)[C@H]3COC(=O)[C@H]23)OCO4)cc(OC)c1O [Teniposide] (top concentration 10000 nM) | 0 | 0 | 0 | 0 | 0.1 | 0 | 0 | 0 | 0 | 0 | 0 | 0 | 0 | 0 | 0 | 0 | 0 | 0 | 0 | 0 |
| Nc1ccn([C@@H]2O[C@H](CO)[C@@H](O)[C@@H]2O)c(=O)n1 [Cytarabine] (top concentration 10000 nM) | 27.7 | 8.6 | 28.7 | 18.8 | 26.9 | 16.3 | -7.7 | 1.6 | 20.9 | 19.6 | 19 | 10.6 | 8.8 | 25.2 | 24.5 | 28.1 | 21.8 | 15.9 | 27.7 | -10 |
| Cc1sc2c(c1C)C(c1ccc(Cl)cc1)=N[C@@H](CC(=O)Nc1ccc(O)cc1)c1nnc(C)n1-2 [Birabresib] (top concentration 10000 nM) | 10.6 | 5.22 | -0.98 | 13.5 | 7.12 | 0.92 | 9.42 | 7.02 | 11.6 | 7.02 | -4.68 | -3.58 | 1.52 | 3.72 | 5.22 | 12 | -3.18 | 11.6 | 3.42 | -9.18 |
| COC(=O)c1ccc2c(c1)NC(=O)/C2=C(\Nc1ccc(N(C)C(=O)CN2CCN(C)CC2)cc1)c1ccccc1 [Nintedanib] (top concentration 10000 nM) | 0.84 | 11.1 | 28.6 | 8.74 | 5.14 | -3.16 | 0.54 | 14.1 | -5.26 | 1.04 | -1.96 | -2.76 | -1.76 | -2.36 | -2.96 | 3.64 | -5.16 | 16 | 9.44 | 0.84 |
| CCc1c2c(nc3ccc(O)cc13)-c1cc3c(c(=O)n1C2)COC(=O)[C@]3(O)CC [SN-38] (top concentration 10000 nM) | 22.7 | 19.5 | 28 | 26.7 | 21.1 | 25.5 | 3.98 | 18.9 | 28 | 25.2 | 28.2 | 24.4 | 13.4 | 22.1 | 26.5 | 27.6 | 27.2 | 25.4 | 26.9 | 18.3 |
| CCN(CC)C(=S)SSC(=S)N(CC)CC [Disulfiram(+CuCl2)] (top concentration 50000 nM) | -1.02 | -2.12 | -2.12 | 18.7 | -0.32 | -2.12 | -2.12 | -1.52 | 15.8 | 8.58 | -2.12 | 16.1 | -2.12 | -2.12 | -2.12 | 5.38 | -0.32 | -2.12 | 10.7 | -2.12 |
| CCn1c(-c2nonc2N)nc2cnc(Oc3cccc(NC(=O)c4ccc(OCCN5CCOCC5)cc4)c3)cc21 (top concentration 10000 nM) | 18.3 | -2.14 | 13.6 | 17.5 | 7.66 | 0.86 | 15.2 | -2.74 | 11.3 | 8.36 | 1.86 | 8.46 | -5.44 | 6.76 | 17.1 | 17.1 | 4.56 | 9.36 | 19.3 | 6.36 |
